Data from patent publication US5614192A, “T cell receptor peptides as therapeutics for immune-related disease” (Connective Therapeutics, Inc., priority 1993, dated 1997).
Marks after values point to notes of the source that are not given here. Ends that are not written are not given here.

Tests used:
[1] = tested on: LNC and T cell lines; assay: T cell proliferation after treatment of EAE with TCR Vβ8 39-59/CFA (Table 27); assay type: cell-based, rats
Method: Lymphocyte Proliferation: Activation of T cells was measured by ^3 H-Tdy uptake. 500,000 lymph node cells or 20,000 line cells in the presence of 1 million irradiated thymic accessory cells were incubated with culture medium and antigens in microtiter wells for 18 hours prior to the addition of 0.5 μBq labeled thymidine. The cell cultures were harvested onto glass fiber filters and counted by liquid scintillation techniques. Mean CPM were calculated from triplicate cultures. Standard deviations (SD) from replicate cultures varied <10% from the mean value.
^a Treated rats were injected s.q. with 50 μg TCR Vβ839-59
^b LW cells collected after the untreated group recovered from EAE

[2] = tested on: EAE; assay: Prevention of EAE by immunization with TCR peptide (Example VI); assay type: in vivo, Lewis rats
Text: EAE is a well-recognized rat model of the human autoimmune disease, multiple sclerosis. […] In this model, the disease is induced by injecting the subject rat with an encephalitogenic form of myelin basic protein, such as, for example, guinea pig basic protein (GPBP) or a synthetic peptide that corresponds to residues 72-89 of GPBP (GPBP(72-89)). Injection of either of these peptides in complete Freund's adjuvant (CFA) induces encephalitogenic T cell clones that utilize preferentially the rat homologs of mouse TCR Vα2 and Vβ8 genes (Chou, Y. K., et al., J. Neurosci. Res. 22:181-187 (1989); Burns, F. R., et al., J. Exp. Med. 169:27-39 (1989)).
^1 EAE was induced by SC challenge with 50 μg GPBP + 400 μg
^2 Rats were injected SC with either: (1) 100 μg of the TCR peptid
^3 Values represent the mean of the maximum severity of EAE. 0, no

[3] = tested on: EAE; assay: Prevention and suppression of EAE by immunization with TCR Vβ8(39-59) (Table 17); assay type: in vivo, Lewis rats
[4] = tested on: LN cells and T cell lines; assay: Proliferation of LN cells and lines from rats protected by transfer of TCR Vβ8 peptide-specific T cells (Table 15); assay type: cell-based, rat
Method: ^1 Lymph node (LN) cells were collected 20 days after simultaneous
^2 LN cells were tested directly (NL column).
^3 T cell lines were selected from these LN cells by culture with TCR

[5] = molecular target: T1, Gp-(S87-99) (Cavia porcellus, UniProt P25188); assay: Direct ELISA, antibody reactivity (Example VII); assay type: binding, guinea pig
T1 construct: made in house; host or cells: chemical solid-phase synthesis

[6] = tested on: lymph node cells and Vβ8-44-54 selected T cell line
[7] = tested on: Vβ8-44-54 reactive T cell clones; assay: Specificity of Vβ8-44-54 reactive T cell clones, proliferation (Table 37); assay type: cell-based, rat
Method: Proliferation assays: Proliferation assays were performed in 96-well microtiter plates. 2×10^4 T cells and 10^6 irradiated thymocytes/well were incubated with stimulation medium only, ConA, or antigen at 37C in 7% CO2. The cultures were incubated for 72 h, the last 18 h in the presence of 0.5 Bq ^3 H-Tdr. The cells were harvested onto glass fiber filters and TCR uptake was assessed by liquid scintillation. Mean CPM wre calculated from triplicate wells. The standard deviation from replicate wells varied <10% from the mean values. In some experiments, azide free antibodies to MHC I (OX-18) or MHC II (OX-6, anti-I-A and OX-17, anti-I-E) were added to the cultures to evaluate which MHC molecules were used to restrict the T cell response to TCR Vβ8-44-54 peptide.
Isolation of Vβ8-44-54 reactive T cell clones. To characterize the anti-TCR peptide response on the clonal level, ten clones were isolated and characterized from the initial T cell line. As is shown in Table 37, each of the clones responded strongly to the Vβ8-44-54 peptide with stimulation indices ranging from 10× to 1300×, and weakly or not at all to the Vβ8.2-39-59 or Vβ8.6-39-59 peptides. Three of the four clones challenged with all three of the peptides responded selectively to the consensus Vβ8-44-54 peptide, whereas only one clone (B7) reflected the T cell line pattern of response characterized by response to Vβ8-44-54 >Vβ8.6-39-59 >Vβ8.2-39-59 (Table 37). Loss of viability of the clones precluded individual testing of EAE-protective activity.

[8] = molecular target: T2, Gp-S49S (Cavia porcellus, UniProt P25188); assay: Direct ELISA, antibody reactivity (Example VII); assay type: binding, guinea pig
T2 construct: Peptide Gp-S49S defines region 69-84 of GPBP and has a C-terminal glycine; made in house; host or cells: chemical solid-phase synthesis

[9] = tested on: passive EAE; assay: Transfer of EAE to naive rats by GPBP-selected T cell lines from treated rats; assay type: in vivo
[10] = tested on: DH reaction; assay: Delayed hypersensitivity (DH) ear swelling to TCR peptide (Example VI); assay type: in vivo, Lewis rats; settings: to 50 μg TCR Vβ8(39-59) in Vβ8(39-59)-immunized rats
Method: The Vβ8(39-59)-immunized rats developed both specific antibodies to the Vβ8(39-59) peptide and a delayed hypersensitivity (DH) response of 0.17 mm ear swelling to 50 μg TCR Vβ8(39-59) peptide.

[11] = tested on: DTH response; assay: Delayed hypersensitivity responses to TCR peptides, ear swelling (Table 26); assay type: in vivo, Lewis rats
[12] = peptide day 0, Gp-(S87-99) challenge day 44
[13] = peptide day 0, Gp-S49S challenge day 44
[14] = A. TCR Vβ8 peptide-specific T cell transfer
[15] = TCR day 0, Gp-S(87-99) d. 44, bleed d. 65, 1:320
[16] = TCR peptide d. 0, Gp-S49S d. 48, bleed d. 74, 1:80

DMGHGLRLIHYSYDVNSTEKG [TCR Vβ8(39-59), 21-amino acid CDR2 peptide of rat TCR Vβ8]
net proliferation of reactive cells ([1]; GP-MBP-selected line from TCR peptide-treated rats): 49,000 CPM | net proliferation of reactive cells ([1]; GP-MBP-selected line from untreated EAE-recovered rats): 9,000 CPM | Proliferation ([1]; Treated rats (TCR Vβ8 39-59/CFA at onset), LNC): 39 ± 4 CPM/1000 | Proliferation ([1]; Treated rats, line BP/1st): 66 ± 6 CPM/1000 | Proliferation ([1]; Treated rats, line Vβ8/1st): 85 ± 2 CPM/1000 | Proliferation ([1]; Untreated rats (GPBP/CFA only), LNC): 34 ± 4 CPM/1000 | Proliferation ([1]; Untreated rats, line BP/1st): 24 ± 3 CPM/1000 | Proliferation ([1]; Untreated rats, line Vβ8/1st): 34 ± 2 CPM/1000 | Proliferation ([1]; Untreated rats, line Vβ14/1st): 11 ± 1 CPM/1000 | EAE Incidence ([2]; 100 μg peptide/CFA SC 30 days before challenge with 50 μg GPBP/CFA): 0/10 | protection from EAE ([2]; Lewis rats): prevented completely the induction of EAE | Clinical Score ([3]; 100 μg peptide/CFA day 0, GPBP (50 μg) challenge day 0): 0.7 ± 0.3 | Clinical Score ([3]; 100 μg peptide/CFA day 0, Gp-S49S (100 μg) challenge day 0): 0.5 | Clinical Score [3, 12]: 0.0 | Histological Score Br [3, 12]: 0.5 ± 0.6 | Histological Score Sc [3, 12]: 0.8 ± 0.5 | Clinical Score [3, 13]: 0.8 | Histological Score Br [3, 13]: 1.8 ± 1.7 | Histological Score Sc [3, 13]: 2.8 ± 1.0 | Proliferation, GPBP Selected Line [4, 14]: 6 cpm × 10^-3 | Proliferation, TCR Peptide Selected Line [4, 14]: 52 cpm × 10^-3 | Proliferation, LN ([4]; A. rats given 3 × 10^7 TCR Vβ8 peptide-specific T cells + GPBP/CFA, LN cells day 20): 90 cpm × 10^-3 | Proliferation, GPBP Selected Line ([4]; B. Saline + GPBP/CFA): 6 cpm × 10^-3 | Proliferation, LN ([4]; B. Saline + GPBP/CFA): 8 cpm × 10^-3 | Theoretical Absorbance against Gp-(S87-99) normalized to 1:40 ([5]; TCR day 0, Gp-S(87-99) d. 44, bleed d. 65): 784 Absorbance (×10^3) | Antisera Reactivity Against Gp-(S87-99) [5, 15]: 348 Absorbance (×10^3) | Antisera Reactivity Against Gp-(S87-99) [5, 16]: 11 Absorbance (×10^3) | increase of anti-S87-99 responses ([5]; preimmunized with TCR peptide vs not treated): > 4 fold | Response of Lymph Node Cells [6]: 38 ± 3 | Response of T Cell Line [6]: 102 ± 10 | Proliferation Response ([7]; Clone B3): 1.1 CPM/1000 | Proliferation Response ([7]; Clone B7): 3 CPM/1000 | Proliferation Response ([7]; Clone B11): 0.7 CPM/1000 | Proliferation Response ([7]; Clone D1): 0.8 CPM/1000 | Proliferation Response ([7]; Line): 102 CPM/1000 | Theoretical Absorbance against Gp-S49S normalized to 1:40 ([8]; TCR d. 0, Gp-S49S d. 48, bleed d. 74): 1750 Absorbance (×10^3) | Antisera Reactivity Against Gp-S49S [8, 15]: 38 Absorbance (×10^3) | Antisera Reactivity Against Gp-S49S [8, 16]: 875 Absorbance (×10^3) | elevation of 26 day antibody responses to Gp-S49S and Gp-S53 ([8]; preimmunized with TCR peptide vs rats not treated): two to four fold | Passive EAE Severity ([9]; 10^7 BP/1st line cells from treated rats): 0 | Passive EAE N ([9]; 10^7 GPBP activated BP/1st line cells from treated rats i.p. into naive rats): 0/3 | Ability to Transfer EAE ([9]; GPBP-selected T cells of rats given TCR peptide ID day 13): YES | delayed hypersensitivity (DH) response, ear swelling [10]: 0.17 mm | 48 Hour DTH Response ([11]; GP-BP/CFA immunized rats, ear test Day 12 (EAE onset)): 11 ± 2 | 48 Hour DTH Response ([11]; Normal or saline/CFA rats, ear test Day 12): 6 ± 3 | 48 Hour DTH Response ([11]; TCR Vβ8 peptide/CFA immunized rats, ear test Day 30): 36 ± 8 | 48 Hour DTH Response ([11]; TCR Vβ814 (so in the source) peptide/CFA immunized rats, ear test Day 30): 6 ± 3
